PubChem BioAssay AID1963429 (Molecular Pharmacology Branch, DTP, NCI, 2024)

Tested on: 126254-015-R-J1-PDC complex spheroid growth, % test/control
Experiment: Anticancer human tumor 126254-015-R-J1-PDC patient-derived soft tissue sarcoma cell line growth inhibition [Asc]
Settings: for IC50: curve of first compound; for viability, T/C: stronger effect = lower value
Summary of the method: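 Tumor cells were grown as complex spheroids with human endothelial cells (HUVEC) and human mesenchymal stem cells as stroma. Agents were tested alone and in combination, in half-log steps down from the clinical Cmax, or from 10 microM where Cmax was unknown.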
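Further: spheroids exposed to compound for seven days.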
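Wherever viability, T/C is given: 100% = DMSO vehicle control wells.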

Cc1nc(N2CCC3(CC2)COC(C)C3N)c(CO)nc1Sc1ccnc(N)c1Cl (stereo not given) + Cc1c(S(C)(=O)=O)c(-c2cc(F)cc(N3CCN(c4ccc(NS(=O)(=O)c5ccc(NC(CCN6CCC(C(=O)OCCCP(=O)(O)O)CC6)CSc6ccccc6)c(S(=O)(=O)C(F)(F)F)c5)cc4)CC3)c2)c(-c2ccc(Cl)cc2)n1C(C)C
IC50 (second compound 0.1 µM): 765 nM
IC50 (second compound 0.316 µM): 451 nM
IC50 (second compound 1 µM): 501 nM
IC50 (second compound 3.16 µM): 362 nM
IC50 (second compound 10 µM): 465 nM
viability, T/C (second compound 0.1 µM, first compound 0.00949 µM): 88.7%
viability, T/C (second compound 0.1 µM, first compound 0.03 µM): 82.2%
viability, T/C (second compound 0.1 µM, first compound 0.0949 µM): 68.6%
viability, T/C (second compound 0.1 µM, first compound 0.3 µM): 56.7%
viability, T/C (second compound 0.1 µM, first compound 0.949 µM): 51.9%
viability, T/C (second compound 0.1 µM, first compound 3 µM): 34.4%
viability, T/C (second compound 0.316 µM, first compound 0.00949 µM): 83.1%
viability, T/C (second compound 0.316 µM, first compound 0.03 µM): 77.6%
viability, T/C (second compound 0.316 µM, first compound 0.0949 µM): 67.8%
viability, T/C (second compound 0.316 µM, first compound 0.3 µM): 55.3%
viability, T/C (second compound 0.316 µM, first compound 0.949 µM): 41%
viability, T/C (second compound 0.316 µM, first compound 3 µM): 34.2%
viability, T/C (second compound 1 µM, first compound 0.00949 µM): 80.8%
viability, T/C (second compound 1 µM, first compound 0.03 µM): 75.7%
viability, T/C (second compound 1 µM, first compound 0.0949 µM): 72.2%
viability, T/C (second compound 1 µM, first compound 0.3 µM): 54.4%
viability, T/C (second compound 1 µM, first compound 0.949 µM): 43.2%
viability, T/C (second compound 1 µM, first compound 3 µM): 30.7%
viability, T/C (second compound 3.16 µM, first compound 0.00949 µM): 78.6%
viability, T/C (second compound 3.16 µM, first compound 0.03 µM): 80.7%
viability, T/C (second compound 3.16 µM, first compound 0.0949 µM): 70.4%
viability, T/C (second compound 3.16 µM, first compound 0.3 µM): 51.7%
viability, T/C (second compound 3.16 µM, first compound 0.949 µM): 40.1%
viability, T/C (second compound 3.16 µM, first compound 3 µM): 34.6%
viability, T/C (second compound 10 µM, first compound 0.00949 µM): 79.2%
viability, T/C (second compound 10 µM, first compound 0.03 µM): 84.7%
viability, T/C (second compound 10 µM, first compound 0.0949 µM): 74%
viability, T/C (second compound 10 µM, first compound 0.3 µM): 56.1%
viability, T/C (second compound 10 µM, first compound 0.949 µM): 40.2%
viability, T/C (second compound 10 µM, first compound 3 µM): 32%

CNC(C)C(=O)NC1CN(S(=O)(=O)c2cccc(S(=O)(=O)N3CCC4CCC(C(=O)NC(c5ccccc5)c5ccccc5)N4C(=O)C(NC(=O)C(C)NC)C3)c2)CCC2CCC(C(=O)NC(c3ccccc3)c3ccccc3)N2C1=O (stereo not given) + CCN1C(C(=O)NC23CCC(C(=O)O)(CC2)CC3)C(c2cccc(Cl)c2F)C2(C(=O)Nc3cc(Cl)ccc32)C12CCCCC2
IC50 (second compound 0.03 µM): > 1000 nM
IC50 (second compound 0.0949 µM): > 1000 nM
IC50 (second compound 0.3 µM): > 1000 nM
IC50 (second compound 0.949 µM): > 1000 nM
IC50 (second compound 3 µM): > 1000 nM
viability, T/C (second compound 0.03 µM, first compound 0.00316 µM): 108%
viability, T/C (second compound 0.03 µM, first compound 0.01 µM): 94.3%
viability, T/C (second compound 0.03 µM, first compound 0.0316 µM): 76.7%
viability, T/C (second compound 0.03 µM, first compound 0.1 µM): 61.4%
viability, T/C (second compound 0.03 µM, first compound 0.316 µM): 50.6%
viability, T/C (second compound 0.03 µM, first compound 1 µM): 56.6%
viability, T/C (second compound 0.0949 µM, first compound 0.00316 µM): 104%
viability, T/C (second compound 0.0949 µM, first compound 0.01 µM): 106%
viability, T/C (second compound 0.0949 µM, first compound 0.0316 µM): 78.5%
viability, T/C (second compound 0.0949 µM, first compound 0.1 µM): 67.2%
viability, T/C (second compound 0.0949 µM, first compound 0.316 µM): 52.6%
viability, T/C (second compound 0.0949 µM, first compound 1 µM): 57.6%
viability, T/C (second compound 0.3 µM, first compound 0.00316 µM): 96%
viability, T/C (second compound 0.3 µM, first compound 0.01 µM): 92.9%
viability, T/C (second compound 0.3 µM, first compound 0.0316 µM): 96.4%
viability, T/C (second compound 0.3 µM, first compound 0.1 µM): 65.3%
viability, T/C (second compound 0.3 µM, first compound 0.316 µM): 62%
viability, T/C (second compound 0.3 µM, first compound 1 µM): 55.8%
viability, T/C (second compound 0.949 µM, first compound 0.00316 µM): 103%
viability, T/C (second compound 0.949 µM, first compound 0.01 µM): 90.4%
viability, T/C (second compound 0.949 µM, first compound 0.0316 µM): 79.6%
viability, T/C (second compound 0.949 µM, first compound 0.1 µM): 66%
viability, T/C (second compound 0.949 µM, first compound 0.316 µM): 58%
viability, T/C (second compound 0.949 µM, first compound 1 µM): 55.7%
viability, T/C (second compound 3 µM, first compound 0.00316 µM): 85.7%
viability, T/C (second compound 3 µM, first compound 0.01 µM): 80.8%
viability, T/C (second compound 3 µM, first compound 0.0316 µM): 84.6%
viability, T/C (second compound 3 µM, first compound 0.1 µM): 65.3%
viability, T/C (second compound 3 µM, first compound 0.316 µM): 53.9%
viability, T/C (second compound 3 µM, first compound 1 µM): 59.2%
